Experimental findings from patent US8557816B2, “Aurora kinase modulators and method of use” (Amgen Inc., priority 2007, dated 2013) are described below.

The target of assay [1] is T1, AuroraA-TPX2 (Homo sapiens, UniProt O14965).
T1 construct: 20 μL of AuroraA-TPX2 KD GST for a final volume of about 41 μL; GST
T1 sequence (O14965 133-383 limits assumed): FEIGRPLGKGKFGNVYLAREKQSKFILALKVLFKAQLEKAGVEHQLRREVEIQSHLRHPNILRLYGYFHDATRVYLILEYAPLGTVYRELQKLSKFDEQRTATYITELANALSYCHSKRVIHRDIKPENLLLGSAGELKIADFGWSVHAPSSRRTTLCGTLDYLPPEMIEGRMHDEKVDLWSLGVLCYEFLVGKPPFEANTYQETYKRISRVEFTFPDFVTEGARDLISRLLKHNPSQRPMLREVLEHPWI
T1 sequence (Q9ULW0 1-43 partner limits assumed): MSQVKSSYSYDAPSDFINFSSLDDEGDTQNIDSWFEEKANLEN
The experiment in a line: AuroraA-TPX2 Homogeneous Time Resolved Fluorescent (HTRF) kinase assay. The assay is classed as biochemical. In outline: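 HTRF read-out (Eu 615 nm to APC 655 nm) of phosphorylated biotin-PLK, detected with 0.02 nM europium anti-phosphoPLK antibody and 0.0005 mg/mL SA-APC after overnight equilibration.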
Background: TR-FRET usually uses a lanthanide donor and a delayed reading to cut background.

The subject of assay [2] is HeLa cells. The assay can be described thus: HeLa cell 24 hr ploidy assay (DNA content). It counts as cell-based. The protocol: HeLa Cell 24 hr Ploidy Assay Protocol
The purpose of this assay is to evaluate the ability of selected individual compounds to induce Deoxyribonucleic acid (DNA) content (ploidy) in cells through failed cell division. Cell cycle analysis is a rapid and efficient way to evaluate the status of DNA content (ploidy) of a given cell. HeLa cells (1×10^4 HeLa cells/well) in 100 ul of media (MEM+10% FBS) were plated in 96-well plates (Packard View) and cultured for 24 hrs at 37° C. maintained in a 5% CO2 atmosphere. […] The compounds were serially diluted in DMSO (0.25% final concentration). The cells were fixed (3.7% Formaldehyde and 1% glutaraldehyde) and permeabilized (1×PBS with 1% BSA and 0.2% Triton X-100) in preparation for nuclear staining. The well plates were stained for 45 minutes at RT in the dark using Hoechest 33342 nuclear stain at 0.5 ug.ml (Stock of 10 mg/ml, Invitrogen, CA, Cat # H3570). The nuclear stain was removed by aspiration and the cells were washed with wash buffer. A Cellomics Array Scan Vti plate reader was used to acquire the DNA ploidy data of the cells using Cell Cycle bioapplication. Numbers for each of “valid cell count/well”, “% of 4N cells” and “% of >4Ncells” were calculated with the assistance of an Activity Base 5.1ca software and dose curves were generated using an XLFit software. With XLFit, final EC50 IP and EC50 transit values, as well as the Max and Min, were calculated for each curve.

In assay [3] the target is T2, AuroraB (Homo sapiens, UniProt Q96GD4).
T2 construct: 20 μL of AuroraB FL H is for a final volume of 41 μL; His
The experiment in a line: AuroraB Homogeneous Time Resolved Fluorescent (HTRF) kinase assay. It counts as biochemical. In outline:
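Full-length His-tagged kinase phosphorylates biotinylated Histone H3 (0.1 μM final) with ATP in pH 7.5 HEPES containing MgCl, MnCl, DTT and BSA for about 90 min. EDTA-containing detection mix with SA-APC and Eu-anti-phosphoHistone H3 then equilibrated about 60 min; HTRF read with 320 nm excitation, emissions 615/655 nm.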

Assay [4] relates to HCT116 xenografts. The assay can be described thus: HCT116 xenograft model (human colon carcinoma), tumor growth inhibition. The assay is classed as in vivo. The conditions noted are these: p.o., athymic nude mice. The procedure: Compounds of the present invention were evaluated in HCT116 xenografts, a human colon carcinoma model. […] These cells were grown as subcutaneous xenografts in female HSD (Harlan Sprague Dawley) athymic nude mice. Mice were implanted subcutaneously with 2×10^6 cells in matrigel on day 0. Treatment was initiated on day 10 with compounds of the invention at the indicated dosage p.o for 2 consecutive-days per week (intermittent schedule, such as 2 days on-5 days off) or 7-days (continuous schedule) per week, for a selected number of weeks. For example, in one study, animals were dosed with selected compound samples BID on an intermittent dosing paradigm of two days on and then 5 days off per week, for four weeks (four dosing cycles) at 15, 7.5, and 3.75 mg/kg. Tumor growth inhibition and body weights were measured throughout the study and compared to the vehicle control group. All groups were provided nutritional supplements on a daily basis throughout the study to maintain body weight. Terminal neutrophil counts were taken at the end of this study. Measures were made by ANOVA followed by Scheffe post hoc test using StatView software v5.0.1.
10 Flasks containing a total of 7.68×10^8 HCT116 tumor cells were harvested for tumor cell implantation. HCT 116 cells were re-suspended to a cell concentration of about 2×10^7 cells/ml in serum-free McCoys 5A media+50% matrigel. Cell viability was measured to be about 99.3%.
Female Athymic Nude mice approximately 14 weeks of age (Harlan Sprague Dawley) were used for the experiment. Mice were housed five per filter-capped cage in sterile housing in an environmentally controlled room (temperature 23±2° C., relative humidity 50±20%) on a 12-hr light/dark cycle. […] On Day 9, tumor-bearing mice were measured and randomized into five groups (n=10). […] During the dosing period, mouse tumor volumes were measured with a digital caliper and weighed twice per week. Tumor volumes were calculated as follows: Tumor Volume (mm^3) [(W^2×L)/2] where width (W) is defined as the smaller of the 2 measurements and length (L) is defined as the larger of the 2 measurements.
A general note: Xenograft models place foreign cells or tissue in a host animal.

The mark [5] stands for this setting: average, read-out: AurA_IC50_IP (uM Avg).
The mark [6] stands for this setting: 4N DNA content, average, read-out: 24h_4N Ploidy EC50_IP (uM Avg).
Where [7] appears, read: average, read-out: AurB_IC50_IP (uM Avg).

Like-named read-outs stand apart in the source and are kept apart here. Where only a bound is given, the exact number is not on record here.

T2 sequence (Q96GD4 whole entry): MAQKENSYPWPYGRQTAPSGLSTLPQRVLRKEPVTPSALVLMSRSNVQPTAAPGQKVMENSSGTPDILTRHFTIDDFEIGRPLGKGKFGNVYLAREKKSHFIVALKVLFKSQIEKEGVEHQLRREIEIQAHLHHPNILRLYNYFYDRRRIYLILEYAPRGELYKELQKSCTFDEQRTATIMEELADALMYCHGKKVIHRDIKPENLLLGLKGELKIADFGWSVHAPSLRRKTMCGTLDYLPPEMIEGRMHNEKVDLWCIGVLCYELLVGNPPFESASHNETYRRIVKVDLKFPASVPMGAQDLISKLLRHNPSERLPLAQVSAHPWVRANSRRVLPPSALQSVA

For “4-(4,5-dimethylthiophen-2-yl)-N-(4-(7-methoxy-1,5-naphthyridin-4-yloxy)phenyl)phthalazin-1-amine [Example 34]”, the IC50 was found to be 0.013 µM in assay [1] (setting [5]) and 0.01 µM in assay [3] (setting [7]). For the same compound, in assay [2] (setting [6]), the EC50 came out at 0.062 µM.

Regarding “4-(4-chlorophenyl)-N-(3-fluoro-4-(4-quinolinyloxy)phenyl)-1-phthalazinamine [compound 244]”, the IC50 worked out at 0.048 µM in assay [1] (setting [5]) and 0.003 µM in assay [3] (setting [7]). Besides, the EC50 in assay [2] (setting [6]) worked out at 0.04 µM.

Take `COc1cnc2c(Oc3ccc(Nc4nnc(-c5ccc(Cl)cc5)c5ccccc45)cc3)ccnc2c1` [Example 160, 4-(4-chlorophenyl)-N-(4-((7-(methyloxy)-1,5-naphthyridin-4-yl)oxy)phenyl)-1-phthalazinamine]: the results for the IC50 in assay [1] (setting [5]) and in assay [3] (setting [7]) were 0.007 µM and 0.003 µM, respectively. Also, the “inhibition of tumor growth” value in assay [4] (3.75 mg/kg, 2-day dosing scheduling QD) was about 86%.

In the case of `COc1cnc2c(Oc3ccc(Nc4nnc(-c5ccc6c(c5)OCO6)c5ccccc45)cc3)ccnc2c1` [Example 165, 4-(1,3-benzodioxol-5-yl)-N-(4-((7-(methyloxy)-1,5-naphthyridin-4-yl)oxy)phenyl)-1-phthalazinamine], the figures for the IC50 in assay [1] (setting [5]) and in assay [3] (setting [7]) were 0.009 µM and 0.007 µM, respectively. For the same compound, the “inhibition of tumor growth” value in assay [4] (2.5 mg/kg, 2-day dosing scheduling BID) was about 63%.

Regarding `COc1cnc2c(Sc3ccc(Nc4nnc(-c5ccccc5)c5ccccc45)cc3)ccnc2c1` [Example 207, N-(4-((7-(methyloxy)-1,5-naphthyridin-4-yl)thio)phenyl)-4-phenyl-1-phthalazinamine], the results for the IC50 in assay [1] (setting [5]) and in assay [3] (setting [7]) were 0.06 µM and 0.009 µM, respectively. Further, in assay [4] (5.0 mg/kg, 2-day dosing scheduling QD), the “inhibition of tumor growth” value is recorded as about 67%.

Turning to `COc1cc2nccc(Sc3ccc(Nc4nnc(-c5ccc(Cl)cc5)c5ccccc45)cc3)c2nc1OC` [compound 598], the IC50 was 0.135 µM in assay [1] (setting [5]) and 0.595 µM in assay [3] (setting [7]).

`Brc1cnc2c(Oc3ccc(Nc4nnc(-c5ccccc5)c5ccccc45)cc3)ncnc2c1` [compound 599]: the results for the IC50 in assay [1] (setting [5]) and in assay [3] (setting [7]) were 0.794 µM and 0.256 µM, respectively.

With `COc1cnc2c(Sc3ccc(Nc4nnc(N5CCN6C[C@H](F)C[C@H]6C5)c5ccccc45)cc3)ccnc2c1` [compound 600], the IC50 in assay [1] (setting [5]) stood at 0.014 µM; in assay [3] (setting [7]), 0.01 µM.

Take `COc1cnc2c(Sc3ccc(Nc4nnc(N5CCN6CC(F)(F)C[C@H]6C5)c5ccccc45)cc3)ccnc2c1` [compound 601]: the IC50 in assay [1] (setting [5]) was found to be 0.021 µM; in assay [3] (setting [7]), 0.012 µM.

Consider `COc1cnc2c(Oc3ccc(Nc4nnc(N5CCN6CCCCC[C@@H]6C5)c5ccccc45)cc3)ccnc2c1` [compound 604], for which the IC50 in assay [1] (setting [5]) amounted to 0.027 µM; in assay [3] (setting [7]), 0.013 µM.

Turning to `COc1cnc2c(Sc3ccc(Nc4nnc(N5CCN(S(C)(=O)=O)CC5)c5ccccc45)cc3)ccnc2c1` [compound 605], the IC50 is 0.803 µM in assay [1] (setting [5]) and 0.083 µM in assay [3] (setting [7]).

With `COc1cc(OC)c2c(Oc3ccc(Nc4nnc(-c5ccccc5)c5ccccc45)cn3)ncnc2c1` [compound 606], the values for the IC50 in assay [1] (setting [5]) and in assay [3] (setting [7]) were over 25 µM and 0.035 µM, respectively.

Turning to `COc1cnc2c(Oc3ccc(Nc4nnc(N5CCN(S(C)(=O)=O)CC5)c5ccccc45)cc3)ccnc2c1` [compound 607], the IC50 was found to be 2.82 µM in assay [1] (setting [5]) and 0.324 µM in assay [3] (setting [7]).

Take `COc1cnc2c(Sc3ccc(Nc4nnc(N5CCN(C(C)=O)CC5)c5ccccc45)cc3)ccnc2c1` [compound 608]: the IC50 worked out at 0.352 µM in assay [1] (setting [5]) and 0.022 µM in assay [3] (setting [7]).

Take `CCc1cc(-c2ccccc2OC)nnc1Nc1ccc(Sc2ccnc3cc(OC)cnc23)cc1` [compound 609]: the IC50 amounted to 0.123 µM in assay [1] (setting [5]) and 0.02 µM in assay [3] (setting [7]).

Consider `Clc1ccc(-c2nnc(Nc3ccc(Oc4ccnc5cc(OCc6ccccc6)cnc45)cc3)c3ccccc23)cc1` [compound 610], for which the IC50 in assay [1] (setting [5]) worked out at 0.047 µM; in assay [3] (setting [7]) it was 0.033 µM.

As for `COc1ccc2c(C(C)c3ccc(Nc4nnc(-c5ccc(Cl)cc5)c5ccccc45)cc3)ccnc2c1` (stereo not shown) [compound 613], the figures for the IC50 in assay [1] (setting [5]) and in assay [3] (setting [7]) were over 25 µM and 0.243 µM, respectively.

Consider `COc1ccc2c(C(O)c3ccc(Nc4nnc(-c5ccc(Cl)cc5)c5ccccc45)cc3)ccnc2c1` (stereo not shown) [compound 614], for which the IC50 was 0.223 µM in assay [1] (setting [5]) and 0.046 µM in assay [3] (setting [7]).

On to `COc1ccc2c(C(=O)c3ccc(Nc4nnc(-c5ccc(Cl)cc5)c5ccccc45)cc3)ccnc2c1` [compound 615], for which the IC50 in assay [1] (setting [5]) came out at 0.3 µM; in assay [3] (setting [7]), 0.039 µM.

On to “(7-(4-(4-(4-methylthiophen-2-yl)phthalazin-1-ylamino)phenylthio)thieno[3,2-b]pyridin-2-yl)(morpholino)methanone [compound 296]”, for which the IC50 in assay [1] (given as class symbol, read-out: AurA_IC50_IP (class symbol)) is under 0.1 µM; in assay [3] (given as class symbol, read-out: AurB_IC50_IP (class symbol)), under 0.1 µM. Also, the EC50 in assay [2] (given as class symbol, read-out: 24h_4N Ploidy EC50_IP (class symbol)) was under 0.1 µM.

Consider “N-(5-(7-methoxy-1,5-naphthyridin-4-yloxy)pyridin-2-yl)-4-phenylphthalazin-1-amine [Example 54]”, for which the IC50 in assay [1] (setting [5]) was found to be 0.176 µM; in assay [3] (setting [7]), 0.02 µM. Further, the EC50 in assay [2] (setting [6]) was found to be 0.028 µM.
